These results are taken from publication PMC12029992, “Beyond-Rule-of-Five Compounds Are Not Different: In Vitro–In Vivo Extrapolation of Female CD-1 Mouse Clearance Based on Merck Healthcare KGaA Compound Set” (Pharmaceuticals, 2025).

Each structure is given as a SMILES string. Like-named read-outs stand apart in the source and are kept apart here.

Data set [1] can be described thus: Determination of CLint in mouse hepatocytes (hepatocyte stability). The data set is classed as in vitro ADME. The settings on record: female CD-1 mouse hepatocytes. As to the method: Hepatocyte stability was assessed, as described previously, on a liquid handling platform (Hamilton Microlab Vantage, Bonaduz, Switzerland) using cryopreserved pooled female CD-1 mouse hepatocytes in suspension. Viability was determined in a Neubauer chamber by trypan blue staining and was always above 70%. Compounds (1 µM final) were incubated with hepatocytes at a cell density of 0.2 × 10^6 cells/mL in Krebs–Henseleit buffer (pH 7.4). […] Incubations were carried out in duplicate at 37 °C under an atmosphere of 5% CO2 and 95% humidity. Aliquots were taken at time points of 0, 10, 20, 40, 60, and 90 min and quenched with a two-fold volume of an ACN solution containing 1.5 µM of an internal standard. The supernatants were further diluted to a ratio of 1:3 (v/v) with supernatants from other compound incubations for bioanalytical cocktailing designed to avoid analytical interference. The samples were analyzed by UHPLC-MS/MS (for details, see the Supplementary Materials).
For quantitation with the Analyst software (version 1.7.2), MS peak area ratios of the compounds and an internal standard were calculated and transformed to nanomolar concentrations determined based on a four-point calibration comprising 1.2% to 150% of the incubation concentration. Calibration standards were prepared using heat-inactivated (60 °C for at least 15 min) hepatocytes as a biomatrix and processed in duplicate, as described for the test samples.
For data analysis, the concentration data were plotted against the incubation time, the first-order kel was determined by non-linear regression using Biorails version 5.10.22/Morphit version 8.0 (The Edge Software Consultancy, Guildford, UK), and CLint values (expressed in µL/min/10^6 cells) were obtained by normalizing kel with the hepatocyte concentration.

A further data set concerns female CD-1 mouse. In words: IVIVE of mouse clearance from hepatocytes (well-stirred model, regression correction). The settings on record: for Fold obs. / pred. (hep.) CL,b,u - Kilford / in vitro (hep.) pred. CLint,b - Kilford / in vitro (hep.) pred. CLint,b,u - Kilford: Kilford fu,hep. An excerpt: Compounds with phase II metabolism were removed from the microsome set (N = 25). […] The following regression equations were derived for microsomes and hepatocytes, respectively: log predicted CLint = 0.8 * log scaled CLint + 0.6 and log predicted CLint = 0.6 * log scaled CLint + 0.8, with CLint expressed in mL/min/kg.
According to Sohlenius-Sternbeck et al., the following equations were used for IVIVE: scaled CLint,b=in vitro CLint∗microsomes/hepatocytes/gram of liver∗liver weight/body weight∗fu,p/fu,inc∗Rb
The physiological scaling factors, taken from Simcyp^TM version 13/1 (Certara), were 48 mg of microsomal protein per gram of liver (MPPGL), 101.7 × 10^6 hepatocytes per gram of liver (HPGL), a liver weight of 1.46 g, and a body weight of 0.025 kg. For microsomes and hepatocytes, fu,mic and fu,hep, were used as the unbound fraction in the incubation (fu,inc), respectively. predicted CLint,b=10^(log scaled CLint∗slope+intercept)
For microsomes, a slope of 0.8 and an intercept of 0.6 were used, and for hepatocytes, a slope of 0.6 and an intercept of 0.8, according to the regression equations derived above. predicted CL,b=pred. CLint,b∗QH/pred. Clint,b+QH
CLp/Rb observed CLint,b=QH∗obs. CL,b/QH−obs. CL,b
All unbound clearance terms were calculated by dividing the respective clearance by fu,p. predicted/observed CL,b,u=pred./obs. CL,b/fu,p
The above-described approach was applied for the IVIVE of clearance of the data set analyzed in this study. Additionally, in order to evaluate the impact of the Kilford calculations as a surrogate for the experimentally determined free fraction in the in vitro systems, clearance was extrapolated using the Kilford equations [16] using the same regression coefficients.

The test system of another data set is Caco-2 cells (TC7 clone). Description: Caco-2 assay (permeability, efflux ratio). Format: in vitro ADME. As to the method:
Reagents and Materials: Phosphate Buffer 20mM pH 7.4: EMS, Art No. 11601-40; DMSO Merck Art. No. 102950; Acetonitrile Merck, Art. No. 100030, Methanol Merck Art. No.
106007; Formic Acid Merck Art.No.100264; Acetonitrile Merck Art. No.10030; Filtration Plate Millipore MultiScreen HTS HV 0.45uM; 96 Well Millipore Art. No. MSHVN4510; Column Waters XBridge Column C8 3.5μm (Waters Cat. No. 186003053); HPLC vials VWR Cat. No. 5480028; Micro-Inserts VWR Cat. No. 548-0006; Screw caps VWR Cat. No.
The Caco-2 assays were performed in a transwell assay setup using Caco-2 cells (TC7 clone). The Caco-2 cells were seeded into the apical wells (125000 cells per well) in DMEM (Dulbecco’s Modified Eagle’s Medium) with 20% FBS (fetal bovine serum) into Corning 24-well transwell plates and cultured for 14-21 days. Prior to the experiment, the plates were washed with HBSS (Hanks' Balanced Salt Solution). Apparent permea-bility Papp was determined from apical-to-basolateral (Papp,AB) by adding 1 […] in HBSS into the apical compartment and HBSS in the basolateral compart-ment, and vice versa for Papp,BA from basolateral-to-apical. Apical volumes were 250 μL, basolateral volumes were 750 μL. DMSO content was <1 % (v/v) in all wells. Monolayer tightness was controlled using melagatran as tightness marker.
Samples were taken from both compartments at timepoint t0 and after 2 hours incuba-tion at 37 °C in 5% CO2 and 100% humidity, and analyzed via UHPLC-MS/MS. The ap-parent permeability Papp was calculated as follows:
P௔௣௣ = Δc௥௘௖Δt∙ V௥௘௖A x cௗ௢௡,଴
Where ∆crec/∆t is the change of concentration in the receiver compartment over the incu-bation time (i.e. 2 hours), Vrec is volume of the receiver compartment, cdon,0 is the concen-tration in the donor compartment at time t0, and A is the surface of the membrane on which the cells grew (i.e. 0.33 cm²).
Mass balance was checked after the experiment by determining the recovery after the […]
Recovery = nௗ௢௡,௘௡ௗ + nௗ௢௡,௥௘௖= cௗ௢௡,௘௡ௗ ∙Vௗ௢௡ + c௥௘௖ ,௘௡ௗ ∙V௥௘௖
The efflux ratio (ER) describes affinity towards efflux transporters:
The geometric mean of Papp,AB and Papp,BA was used as passive permeability Papp,pass.

The mark [2] stands for this setting: hepatocytes, experimental fu,hep.

In the case of `O=C(O)c1cc(-c2ccc(F)cc2F)ccc1O` [MSC001], the “Hepatocyte CLint” value in data set [1] came out at 11.9 µl/min/1e6 cells. For the same compound, in the data set with female CD-1 mouse (hepatocytes), the “Fold obs. / pred. (hep.) CL,b,u - Kilford” value was 0.3, the “in vitro (hep.) pred. CLint,b - Kilford” value is given as 9.82 mL/min/kg and the “in vitro (hep.) pred. CLint,b,u - Kilford” value is 576.00 mL/min/kg. Moreover, in the data set with female CD-1 mouse (setting [2]), the “Fold obs. / pred. (hep.) CL,b,u - exp. fu,hep” value is on record as 0.3, the “in vitro (hep.) pred. CLint,b - exp. fu,hep” value was 9.94 mL/min/kg and the “in vitro (hep.) pred. CLint,b,u - exp. fu,hep” value turned out to be 582.73 mL/min/kg. In addition, in the data set with Caco-2 cells (TC7 clone), the “CaCo-2 Efflux ratio ER” value is 2.6. For the same compound, the “CaCo-2 Papp Passive” value in the data set with Caco-2 cells (TC7 clone) (apparent passive permeability) is recorded as 25.85 10e-6 cm/s.

On to `CNC(=O)c1cc(Oc2ccc3nc(N[C@@H]4CCCC[C@H]4O)sc3c2)ccn1` [MSC003], for which the “Hepatocyte CLint” value in data set [1] is 16.5 µl/min/1e6 cells. In addition, in the data set on female CD-1 mouse (hepatocytes), the “Fold obs. / pred. (hep.) CL,b,u - Kilford” value worked out at 0.356, the “in vitro (hep.) pred. CLint,b - Kilford” value is 21.81 mL/min/kg and the “in vitro (hep.) pred. CLint,b,u - Kilford” value is reported as 285.43 mL/min/kg. Moreover, in the data set with female CD-1 mouse (setting [2]), the “Fold obs. / pred. (hep.) CL,b,u - exp. fu,hep” value was determined as 0.36, the “in vitro (hep.) pred. CLint,b - exp. fu,hep” value is 21.48 mL/min/kg and the “in vitro (hep.) pred. CLint,b,u - exp. fu,hep” value is reported as 281.21 mL/min/kg. For the same compound, in the data set with Caco-2 cells (TC7 clone), the “CaCo-2 Efflux ratio ER” value worked out at 1.4. Also, the “CaCo-2 Papp Passive” value with Caco-2 cells (TC7 clone) (apparent passive permeability) was 31.60 10e-6 cm/s.

For the compound `COc1cccc(OCCCN)c1-c1cc(Nc2cnc(C#N)cn2)n[nH]1` [MSC020], in data set [1], the “Hepatocyte CLint” value was determined as 70.5 µl/min/1e6 cells. In the data set on female CD-1 mouse (hepatocytes), the “Fold obs. / pred. (hep.) CL,b,u - Kilford” value was found to be 1.5, the “in vitro (hep.) pred. CLint,b - Kilford” value worked out at 99.13 mL/min/kg and the “in vitro (hep.) pred. CLint,b,u - Kilford” value is listed as 516.30 mL/min/kg. Further, in the data set with female CD-1 mouse (setting [2]), the “Fold obs. / pred. (hep.) CL,b,u - exp. fu,hep” value worked out at 1.5, the “in vitro (hep.) pred. CLint,b - exp. fu,hep” value is recorded as 103.91 mL/min/kg and the “in vitro (hep.) pred. CLint,b,u - exp. fu,hep” value was 541.18 mL/min/kg. The “CaCo-2 Efflux ratio ER” value with Caco-2 cells (TC7 clone) came out at 48.4. In the data set on Caco-2 cells (TC7 clone) (apparent passive permeability), the “CaCo-2 Papp Passive” value was 2.67 10e-6 cm/s.

In the case of `N#Cc1c[nH]c2c(C(=O)N3CCN(CCc4ccc(F)cc4)CC3)cccc12` [MSC213], in data set [1], the “Hepatocyte CLint” value stood at 222.1 µl/min/1e6 cells. Further, in the data set with female CD-1 mouse (from hepatocytes), the “in vitro (hep.) pred. CLint,b - Kilford” value is given as 83.55 mL/min/kg and the “in vitro (hep.) pred. CLint,b,u - Kilford” value is listed as 1799.14 mL/min/kg. In the data set with female CD-1 mouse (from hepatocytes, exp. fu,hep), the “in vitro (hep.) pred. CLint,b - exp. fu,hep” value was 89.51 mL/min/kg and the “in vitro (hep.) pred. CLint,b,u - exp. fu,hep” value is recorded as 1927.40 mL/min/kg. For the same compound, the “Fold obs. / pred. (hep.) CL,b,u - Kilford” value in the data set with female CD-1 mouse (hepatocytes) came to 1.4. Moreover, the “Fold obs. / pred. (hep.) CL,b,u - exp. fu,hep” value in the data set on female CD-1 mouse (hepatocytes, exp. fu,hep) was 1.3. Also, in the data set with Caco-2 cells (TC7 clone) (Caco-2), the “CaCo-2 Efflux ratio ER” value is 1.0 and the “CaCo-2 Papp Passive” value is given as 24.10 10e-6 cm/s.
